Literature values in patent US10813571B2, “Devices and methods for non-invasive monitoring of substance in a body” (TATA C[…] LIMITED, priority 2015, dated 2020).

Details: in the user's (smoker's) body; as known in the art

CN1CCCC1c1cccnc1 (stereo not shown) [nicotine]
half-life of nicotine in the body (t1/2): 1 to 2 h
